How the values were obtained:
Type in all cases: in vivo
Abutilon theophrasti = experiment: Test Example 5: herbicidal effect by foliage application, plastic box (symbol M); conditions: 320 g/ha, 3 weeks after application
Procedure, shortened: (§1)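 Herbicide, formulated as an emulsion and diluted in water, is sprayed onto the aerial parts of 14-day seedlings. These were grown at 25° C. to 30° C. in sterilized diluvial soil; effects are graded after 3 weeks.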

rapeseed [1] = experiment: Test Example 4: effect on crop by soil treatment (symbol g); conditions: application herbicide amount 320 g/ha
Procedure, shortened: (§2)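 Sterilized diluvial soil, spot sowing, ~1.5 cm soil cover; greenhouse 25–30° C.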

Lolium multiflorum Lam. [2] = experiment: Test Example 4: herbicidal effect by soil treatment (symbol K); conditions: application herbicide amount 320 g/ha
Procedure, shortened: (§3)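 Seeds were sown in sterilized diluvial soil, covered with about 1.5 cm of soil, and the soil surface was sprayed with a water-diluted emulsion of the compound at a predetermined rate. Plants grew in a greenhouse at 25° C. to 30° C.; effects were scored visually 3 weeks after application.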

Apera spica-venti [3] = experiment: Test Example 5: herbicidal effect by foliage application, plastic box (symbol L); conditions: 320 g/ha, 3 weeks after application
Procedure, shortened: as §1

Galium spurium = experiment: Test Example 5: herbicidal effect by foliage application, plastic box (symbol Q); conditions: 320 g/ha, 3 weeks after application
Procedure, shortened: as §1

[4] = tested on: Echinochloa crus-galli var. crus-galli; experiment: Test Example 4: herbicidal effect by soil treatment (symbol H); conditions: application herbicide amount 320 g/ha
Procedure, shortened: as §3

Lolium multiflorum Lam. [5] = experiment: Test Example 5: herbicidal effect by foliage application, plastic box (symbol K); conditions: 320 g/ha, 3 weeks after application
Procedure, shortened: as §1

Chenopodium album = experiment: Test Example 5: herbicidal effect by foliage application, plastic box (symbol O); conditions: 320 g/ha, 3 weeks after application
Procedure, shortened: as §1

Monochoria vaginalis = experiment: Test Example 2: herbicidal activity, application during weed generation in submerged conditions (symbol C); conditions: Table 23; application herbicide amount 320 g/ha; grade 0-5 by criteria of Test Example 1
Procedure, shortened: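 Seeds sown in flooded alluvial soil (4 cm water) were grown in a 25-30° C greenhouse. At the one- to two-leaf stage, diluted emulsion of compound was applied to the water surface at a predetermined rate. Effect was scored 3 weeks later.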

Alopecurus myosuroides = experiment: Test Example 4: herbicidal effect by soil treatment (symbol J); conditions: application herbicide amount 320 g/ha
Procedure, shortened: as §3

Avena fatua [6] = experiment: Test Example 4: herbicidal effect by soil treatment (symbol I); conditions: application herbicide amount 320 g/ha
Procedure, shortened: as §3

[7] = tested on: directly sowed rice plant; experiment: Test Example 3: effect on crop by foliage application, Wagner pot (symbol b); conditions: application herbicide amount 320 g/ha
Procedure, shortened: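 Greenhouse culture at 25–30 °C of seeded rice, Cyperus difformis, Leptochloa chinensis and Echinochloa crus-galli var. crus-galli, in alluvial soil held under 0.1–0.5 cm of water in a Wagner pot.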

Digitaria ciliaris [8] = experiment: Test Example 4: herbicidal effect by soil treatment (symbol F); conditions: application herbicide amount 320 g/ha
Procedure, shortened: as §3

rice = experiment: Test Example 4: effect on crop by soil treatment (symbol b); conditions: application herbicide amount 320 g/ha
Procedure, shortened: as §2

wheat = experiment: Test Example 5: effect on crop by foliage application, plastic box (symbol e); conditions: 320 g/ha, 3 weeks after application
Procedure, shortened: (§4)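 Crop and weed seeds sown in spots in sterilized diluvial soil in plastic boxes and covered with about 1.5 cm soil. Plants raised in a greenhouse at 25° C. to 30° C. for foliar application.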

Digitaria ciliaris [9] = experiment: Test Example 5: herbicidal effect by foliage application, plastic box (symbol F); conditions: 320 g/ha, 3 weeks after application
Procedure, shortened: as §1

Stellaria media = experiment: Test Example 5: herbicidal effect by foliage application, plastic box (symbol P); conditions: 320 g/ha, 3 weeks after application
Procedure, shortened: as §1

Veronica persica = experiment: Test Example 5: herbicidal effect by foliage application, plastic box (symbol R); conditions: 320 g/ha, 3 weeks after application
Procedure, shortened: as §1

Avena fatua [10] = experiment: Test Example 5: herbicidal effect by foliage application, plastic box (symbol I); conditions: 320 g/ha, 3 weeks after application
Procedure, shortened: as §1

Amaranthus retroflexus = experiment: Test Example 5: herbicidal effect by foliage application, plastic box (symbol N); conditions: 320 g/ha, 3 weeks after application
Procedure, shortened: as §1

beet = experiment: Test Example 4: effect on crop by soil treatment (symbol f); conditions: application herbicide amount 320 g/ha
Procedure, shortened: as §2

rapeseed [11] = experiment: Test Example 5: effect on crop by foliage application, plastic box (symbol g); conditions: 320 g/ha, 3 weeks after application
Procedure, shortened: as §4

Apera spica-venti [12] = experiment: Test Example 4: herbicidal effect by soil treatment (symbol L); conditions: application herbicide amount 320 g/ha
Procedure, shortened: as §3

Compound | M: Abutilon theophrasti, herbicidal effect (criteria of Test Example 1) (Abutilon theophrasti) | Effect on crop grade, g: rapeseed (rapeseed [1]) | Herbicidal effect grade, K: Lolium multiflorum Lam. (Lolium multiflorum Lam. [2]) | L: Apera spica-venti, herbicidal effect (criteria of Test Example 1) (Apera spica-venti [3]) | Q: Galium spurium, herbicidal effect (criteria of Test Example 1) (Galium spurium) | Herbicidal effect grade, H: Echinochloa crus-galli var. crus-galli [4] | K: Lolium multiflorum Lam., herbicidal effect (criteria of Test Example 1) (Lolium multiflorum Lam. [5]) | O: Chenopodium album, herbicidal effect (criteria of Test Example 1) (Chenopodium album) | Herbicidal effect grade, C: Monochoria vaginalis (Monochoria vaginalis) | Herbicidal effect grade, J: Alopecurus myosuroides (Alopecurus myosuroides) | Herbicidal effect grade, I: Avena fatua (Avena fatua [6]) | effect on crop b (directly sowed rice plant), grade 0-5 [7] | Herbicidal effect grade, F: Digitaria ciliaris (Digitaria ciliaris [8]) | Effect on crop grade, b: directly sowed rice plant (rice) | e: wheat, effect on crop (criteria of Test Example 1) (wheat) | F: Digitaria ciliaris, herbicidal effect (criteria of Test Example 1) (Digitaria ciliaris [9]) | P: Stellaria media, herbicidal effect (criteria of Test Example 1) (Stellaria media) | R: Veronica persica, herbicidal effect (criteria of Test Example 1) (Veronica persica) | I: Avena fatua, herbicidal effect (criteria of Test Example 1) (Avena fatua [10]) | N: Amaranthus retroflexus, herbicidal effect (criteria of Test Example 1) (Amaranthus retroflexus) | further results
CCc1cc(Br)cc(C)c1C1=C(O)CC(CC(C)=O)C1=O (stereo not drawn) [7-003] | 0 (Herbicidal ratio of 5% or lower (almost no effect)) | 0 (Herbicidal ratio of 5% or lower (almost no effect)) | 5 (Herbicidal ratio of 90% or more (almost completely withered)) | 5 (Herbicidal ratio of 90% or more (almost completely withered)) | 0 (Herbicidal ratio of 5% or lower (almost no effect)) | 5 (Herbicidal ratio of 90% or more (almost completely withered)) | 5 (Herbicidal ratio of 90% or more (almost completely withered)) | 0 (Herbicidal ratio of 5% or lower (almost no effect)) | 0 (Herbicidal ratio of 5% or lower (almost no effect)) | 5 (Herbicidal ratio of 90% or more (almost completely withered)) | 4 (Herbicidal ratio of 70% or higher and lower than 90%) | 5 (Herbicidal ratio of 90% or more (almost completely withered)) | 5 (Herbicidal ratio of 90% or more (almost completely withered)) | 5 (Herbicidal ratio of 90% or more (almost completely withered)) | 0 (Herbicidal ratio of 5% or lower (almost no effect)) | 5 (Herbicidal ratio of 90% or more (almost completely withered)) | 0 (Herbicidal ratio of 5% or lower (almost no effect)) | 0 (Herbicidal ratio of 5% or lower (almost no effect)) | 5 (Herbicidal ratio of 90% or more (almost completely withered)) | 0 (Herbicidal ratio of 5% or lower (almost no effect)) | Effect on crop grade, f: beet (beet): 0 (Herbicidal ratio of 5% or lower (almost no effect)); g: rapeseed, effect on crop (criteria of Test Example 1) (rapeseed [11]): 0 (Herbicidal ratio of 5% or lower (almost no effect)); Herbicidal effect grade, L: Apera spica-venti (Apera spica-venti [12]): 5 (Herbicidal ratio of 90% or more (almost completely withered))
CON=C(C)CC1CC(O)=C(c2c(C)cc(-c3cc(F)c(F)c(F)c3)cc2C)C1=O (stereo not drawn) [6-104] | 5 (Herbicidal ratio of 90% or more (almost completely withered)) | 4 (Herbicidal ratio of 70% or higher and lower than 90%) | 1 (Herbicidal ratio of 5% or higher and lower than 20%) | 5 (Herbicidal ratio of 90% or more (almost completely withered)) | 4 (Herbicidal ratio of 70% or higher and lower than 90%) | 5 (Herbicidal ratio of 90% or more (almost completely withered)) | 5 (Herbicidal ratio of 90% or more (almost completely withered)) | 4 (Herbicidal ratio of 70% or higher and lower than 90%) | 5 (Herbicidal ratio of 90% or more (almost completely withered)) | 5 (Herbicidal ratio of 90% or more (almost completely withered)) | 4 (Herbicidal ratio of 70% or higher and lower than 90%) | 5 (Herbicidal ratio of 90% or more (almost completely withered)) | 5 (Herbicidal ratio of 90% or more (almost completely withered)) | 5 (Herbicidal ratio of 90% or more (almost completely withered)) | 5 (Herbicidal ratio of 90% or more (almost completely withered)) | 5 (Herbicidal ratio of 90% or more (almost completely withered)) | 4 (Herbicidal ratio of 70% or higher and lower than 90%) | 4 (Herbicidal ratio of 70% or higher and lower than 90%) | 5 (Herbicidal ratio of 90% or more (almost completely withered)) | 5 (Herbicidal ratio of 90% or more (almost completely withered)) | Effect on crop grade, f: beet (beet): 4 (Herbicidal ratio of 70% or higher and lower than 90%); g: rapeseed, effect on crop (criteria of Test Example 1) (rapeseed [11]): 4 (Herbicidal ratio of 70% or higher and lower than 90%); Herbicidal effect grade, L: Apera spica-venti (Apera spica-venti [12]): 5 (Herbicidal ratio of 90% or more (almost completely withered))
CON=C(C)CC1CC(OC(=O)COc2ccccc2)=C(c2c(C)cc(-c3ccccc3)cc2OC)C1=O (stereo not drawn) [6-100] | 3 (Herbicidal ratio of 40% or higher and lower than 70%) | 5 (Herbicidal ratio of 90% or more (almost completely withered)) | 5 (Herbicidal ratio of 90% or more (almost completely withered)) | 5 (Herbicidal ratio of 90% or more (almost completely withered)) | 4 (Herbicidal ratio of 70% or higher and lower than 90%) | 5 (Herbicidal ratio of 90% or more (almost completely withered)) | 5 (Herbicidal ratio of 90% or more (almost completely withered)) | 4 (Herbicidal ratio of 70% or higher and lower than 90%) | 5 (Herbicidal ratio of 90% or more (almost completely withered)) | 5 (Herbicidal ratio of 90% or more (almost completely withered)) | 5 (Herbicidal ratio of 90% or more (almost completely withered)) | 5 (Herbicidal ratio of 90% or more (almost completely withered)) | 5 (Herbicidal ratio of 90% or more (almost completely withered)) | 5 (Herbicidal ratio of 90% or more (almost completely withered)) | 5 (Herbicidal ratio of 90% or more (almost completely withered)) | 5 (Herbicidal ratio of 90% or more (almost completely withered)) | 3 (Herbicidal ratio of 40% or higher and lower than 70%) | 3 (Herbicidal ratio of 40% or higher and lower than 70%) | 5 (Herbicidal ratio of 90% or more (almost completely withered)) | 4 (Herbicidal ratio of 70% or higher and lower than 90%) | Effect on crop grade, f: beet (beet): 0 (Herbicidal ratio of 5% or lower (almost no effect)); g: rapeseed, effect on crop (criteria of Test Example 1) (rapeseed [11]): 5 (Herbicidal ratio of 90% or more (almost completely withered)); Herbicidal effect grade, L: Apera spica-venti (Apera spica-venti [12]): 5 (Herbicidal ratio of 90% or more (almost completely withered))

From US11000033B2, “Ketone or oxime compound, and herbicide” (NISSAN CHEMICAL CORPORATION, priority 2014, dated 2021)
